From ChEMBL document CHEMBL3286248, “Easily accessible polycyclic amines that inhibit the wild-type and amantadine-resistant mutants of the M2 channel of influenza A virus” (J Med Chem, 2014)
Counter-ions that a name gives are not always drawn. Calls of active or inactive are those of the source. No cut-off for these calls is given here.

Columns and labels:
MDCK = assay type: cell-based, Canis lupus familiaris; conditions: dog, 72 h
[1] = molecular target: Matrix protein 2 (Influenza A virus (A/Udorn/307/1972(H3N2)), UniProt P0DOF8); assay type: cell membranes, Influenza A virus (A/udorn/1972(H3N2))
Matrix protein 2 (Influenza A virus (A/Udorn/307/1972(H3N2)), UniProt P0DOF8), sequence (P0DOF8 whole entry): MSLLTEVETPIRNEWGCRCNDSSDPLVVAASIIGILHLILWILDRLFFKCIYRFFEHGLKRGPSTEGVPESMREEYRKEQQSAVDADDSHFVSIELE

[2] = Cytotoxicity against MDCK cells assessed as alteration in cell morphology after 72 hrs; assay type: cell-based, Canis lupus familiaris; conditions: dog
Influenza B virus = experiment: Antiviral activity against Influenza B virus (B/HK/5/72) infected in MDCK cells; assay type: functional, cell-based; conditions: B/Hong Kong/05/1972
[3] = molecular target: Matrix protein 2 (Influenza A virus (A/Udorn/307/1972(H3N2))) (UniProt P0DOF8); assay type: cell membranes; conditions: Influenza A virus (A/udorn/1972(H3N2))
Matrix protein 2 (Influenza A virus (A/Udorn/307/1972(H3N2))), sequence (P0DOF8 whole entry): as above

Structure (SMILES)	CC50 (MDCK) [µM]	IC50 [1] [µM]	MCC at 72 h [2] [µM]	Activity (Influenza B virus)	inhibition [3]
N=C(N)N1CC2C3C=CC(C4CC34)C2C1 (stereo not given)	39	1.5	100	inactive	
C1CC2C1C1CCC2C2CNCC12 (stereo not given)	1.9	1.24	4	inactive	
C1=CC2C3CC3C1C1CN(C3CCNCC3)CC21 (stereo not given)	46		100	inactive	inactive
C1=CC2C3CNCC3C1C1CC21 (stereo not given)	54	2.92	100	inactive	
CC(N)C12CC3CC(CC(C3)C1)C2 (stereo not given) [RIMANTADINE HYDROCHLORIDE]	230			inactive	
C1=CC2C1C1C=CC2C2CNCC12 (stereo not given)	4.9	5.54	15	inactive	
CC12CC34CNCC35CC1(C)C(C)(C5)C2(C)C4 (stereo not given)	49		100	inactive	
N=C(N)N1CC2C3CCC(C4CC34)C2C1 (stereo not given)	41	1.64	100	inactive	
N=C(N)N1CC2C3C=CC(C4C=CC43)C2C1 (stereo not given)	9.4	4.93	20	inactive	
N=C(N)N1CC2C3CCC(C4CCC43)C2C1 (stereo not given)	1.9		4	inactive	
NC12CC3CC(CC(C3)C1)C2 [AMANTADINE]	> 500		≥ 500	inactive	
C1CC(N2CC3C4CCC(C5CC45)C3C2)CCN1 (stereo not given)	9		20	inactive	inactive
CC12CC34CN(C(=N)N)CC35CC1(C)C(C)(C5)C2(C)C4 (stereo not given)	15		≥ 4	inactive	
C1CC2C3CNCC3C1C1CC21 (stereo not given)	49	3.38	100	inactive	
